Results as given in ChEMBL document CHEMBL1152415, “Potent antitumor bifunctional DNA alkylating agents, synthesis and biological activities of 3a-aza-cyclopenta[a]indenes” (Bioorg Med Chem, 2009).
Active and inactive are the calls of the source. No cut-off for these calls is given here.

Experiments:
MX1 = experiment: Cytotoxicity against human MX1 cells after 72 hrs by SRB assay; format: functional, cell-based; conditions: MX1, 72 h
CCRF-CEM [1] = experiment: Cytotoxicity against human vinblastine-resistant CCRF-CEM cells after 72 hrs by XTT assay; format: functional, cell-based
CCRF-CEM [2] = experiment: Cross-resistance, IC50 for human vinblastine-resistant CCRF-CEM cells to IC50 for human CCRF-CEM cells; format: functional
HCT-116 = experiment: Cytotoxicity against human HCT116 cells after 72 hrs by SRB assay; format: functional, cell-based; conditions: HCT-116, 72 h
CCRF-CEM [3] = experiment: Cytotoxicity against human CCRF-CEM cells after 72 hrs by XTT assay; format: functional, cell-based; conditions: read-out: IC50
CCRF-CEM [4] = experiment: Cytotoxicity against human taxol-resistant CCRF-CEM cells after 72 hrs by XTT assay; format: functional, cell-based
CCRF-CEM [5] = experiment: Cross-resistance, IC50 for human taxol-resistant CCRF-CEM cells to IC50 for human CCRF-CEM cells; format: functional
Nucleic Acid [6] = experiment: Induction of DNA interstrand cross-linking in human H1299 cells at 100 uM under aerobic condition for 1 hr followed by irradiated with 20 Gy of X-ray by modified comet assay relative to irradiated untreated control; format: cell-based
PC-3 = experiment: Cytotoxicity against human PC3 cells after 72 hrs by WST-1 assay; format: functional, cell-based; conditions: PC-3, 72 h
[7] = Cytotoxicity against human U87 cells after 72 hrs by WST-1 assay; format: functional, cell-based, U-87MG ATCC; conditions: U-87 MG
[8] = Cytotoxicity against human H1299 cells after 72 hrs by WST-1 assay; format: functional, cell-based; conditions: NCI-H1299, 72 h
[9] = Cytotoxicity against human OECM1 cells after 72 hrs by WST-1 assay; format: functional, cell-based; conditions: OECM1, 72 h
[10] = Cell cycle arrest in human H1299 cells assessed as accumulation at G2/M phase at 10 uM after 48 hrs by flow cytometry relative to control; format: functional, cell-based; conditions: NCI-H1299
Nucleic Acid [11] = experiment: Induction of pEGFP-N1 plasmid DNA interstrand cross-linking at 10 uM after 2 hrs by alkaline agarose gel shift assay; format: nucleic-acid assay
[12] = Cell cycle arrest in human H1299 cells assessed as accumulation at S phase at 10 uM after 48 hrs by flow cytometry relative to control; format: functional, cell-based; conditions: NCI-H1299
Nucleic Acid [13] = experiment: Induction of pEGFP-N1 plasmid DNA interstrand cross-linking at 20 uM after 2 hrs by alkaline agarose gel shift assay; format: nucleic-acid assay
[14] = Cell cycle arrest in human H1299 cells assessed as accumulation at subG1 phase at 10 uM after 48 hrs by flow cytometry relative to control; format: functional, cell-based; conditions: NCI-H1299
[15] = Cell cycle arrest in human H1299 cells assessed as accumulation at G0/G1 phase at 10 uM after 72 hrs by flow cytometry relative to control; format: functional, cell-based; conditions: NCI-H1299
[16] = Cell cycle arrest in human H1299 cells assessed as accumulation at S phase at 10 uM after 72 hrs by flow cytometry relative to control; format: functional, cell-based; conditions: NCI-H1299
[17] = Cell cycle arrest in human H1299 cells assessed as accumulation at G0/G1 phase at 10 uM after 48 hrs by flow cytometry relative to control; format: functional, cell-based; conditions: NCI-H1299
[18] = Cell cycle arrest in human H1299 cells assessed as accumulation at G2/M phase at 10 uM after 72 hrs by flow cytometry relative to control; format: functional, cell-based; conditions: NCI-H1299
[19] = Cell cycle arrest in human H1299 cells assessed as accumulation at subG1 phase at 10 uM after 24 hrs by flow cytometry relative to control; format: functional, cell-based; conditions: NCI-H1299
[20] = Cell cycle arrest in human H1299 cells assessed as accumulation at G0/G1 phase at 10 uM after 24 hrs by flow cytometry relative to control; format: functional, cell-based; conditions: NCI-H1299
[21] = Cell cycle arrest in human H1299 cells assessed as accumulation at subG1 phase at 10 uM after 72 hrs by flow cytometry relative to control; format: functional, cell-based; conditions: NCI-H1299
[22] = Cell cycle arrest in human H1299 cells assessed as accumulation at G2/M phase at 10 uM after 24 hrs by flow cytometry relative to control; format: functional, cell-based; conditions: NCI-H1299
Nucleic Acid [23] = experiment: Induction of pEGFP-N1 plasmid DNA interstrand cross-linking at 1 uM after 2 hrs by alkaline agarose gel shift assay; format: nucleic-acid assay
[24] = Cell cycle arrest in human H1299 cells assessed as accumulation at S phase at 10 uM after 24 hrs by flow cytometry relative to control; format: functional, cell-based; conditions: NCI-H1299

Row | SMILES | IC50 (MX1) [nM] | IC50 (CCRF-CEM [1]) [nM] | Ratio IC50 (CCRF-CEM [2]) | IC50 (HCT-116) [nM] | IC50 (CCRF-CEM [3]) [nM] | IC50 (CCRF-CEM [4]) [nM] | Ratio IC50 (CCRF-CEM [5]) | IC50 (PC-3) [nM] | IC50 [7] [nM] | IC50 [8] [nM] | IC50 [9] [nM] | further results
1 | CNC(=O)OCc1c(COC(=O)NC)c(-c2ccccc2)n2c1Cc1ccccc1-2 | 5900 | 550 | 1.6 | 750 | 360 | 1700 | 4.7 |  |  |  |  | 
2 | CNC(=O)OCc1c(COC(=O)NC)c(-c2cc(OC)c(OC)c(OC)c2)n2c1Cc1ccccc1-2 | 7200 | 14000 | 1.2 | 1900 | 12000 | 8400 | 0.73 |  |  |  |  | 
3 | COc1cccc(OC)c1-c1c(CO)c(CO)c2n1-c1ccccc1C2 | 26000 | 7500 | 0.92 | 43000 | 8100 | 6200 | 0.76 |  |  |  |  | 
4 | COc1ccc(-c2c(CO)c(CO)c3n2-c2ccccc2C3)cc1OC | 11000 | 1900 | 1.8 | 4300 | 1000 | 1100 | 1.1 |  |  |  |  | 
5 | CO[C@@]12[C@H](COC(N)=O)C3=C(C(=O)C(C)=C(N)C3=O)N1C[C@@H]1N[C@@H]12 |  |  |  |  |  |  |  |  |  |  |  | Activity (Nucleic Acid [6]): 76.5%
6 | CCc1c(COC(=O)NC)c(COC(=O)NC)c2n1-c1ccccc1C2 | 660 | 100 | 1.5 | 710 | 70 | 80 | 1.2 | > 50000 | > 50000 | > 50000 | 11800 | 
7 | COc1ccc(-c2c(CO)c(CO)c3n2-c2ccc(OC)cc2C3)cc1 | 1500 | 140 | 1.2 | 670 | 120 | 62 | 0.53 | 23200 | 24400 | 19000 | 1540 | Activity [10]: 41.9%; Activity (Nucleic Acid [11]): Active; Activity (Nucleic Acid [6]): 35.5%; Activity [12]: 38.9%; Activity (Nucleic Acid [13]): Active; Activity [14]: 3.88%; Activity [15]: 1.8%; Activity [16]: 24.6%; Activity [17]: 19.3%; Activity [18]: 73.6%; Activity [19]: 1.95%; Activity [20]: 43.7%; Activity [21]: 15.6%; Activity [22]: 5.84%; Activity (Nucleic Acid [23]): Active; Activity [24]: 50.5%
8 | OCc1c(CO)c(-c2ccc(F)cc2)n2c1Cc1ccccc1-2 | 22000 | 11000 | 2.5 | 8700 | 4500 | 7200 | 1.6 |  |  |  |  | 
9 | CNC(=O)OCc1c(COC(=O)NC)c2n(c1C)-c1ccccc1C2 | 340 | 63 | 0.53 | 300 | 120 | 120 | 0.67 | 27200 | > 50000 | > 50000 | 1450 | 
10 | CNC(=O)OCc1c(COC(=O)NC)c(-c2ccc(OC)cc2)n2c1Cc1cc(OC)ccc1-2 | 870 | 98 | 1.6 | 440 | 62 | 62 | 1 | 22000 | 38300 | 20900 | 1270 | Activity [10]: 49.5%; Activity (Nucleic Acid [11]): Active; Activity (Nucleic Acid [6]): 97.9%; Activity [12]: 25.6%; Activity (Nucleic Acid [13]): Active; Activity [14]: 5.86%; Activity [15]: 5.06%; Activity [16]: 9.19%; Activity [17]: 24.9%; Activity [18]: 85.8%; Activity [19]: 2.64%; Activity [20]: 44.7%; Activity [21]: 17.2%; Activity [22]: 4.15%; Activity (Nucleic Acid [23]): Active; Activity [24]: 51.1%
11 | COc1ccccc1-c1c(CO)c(CO)c2n1-c1ccccc1C2 | 8700 | 2700 | 2.6 | 12000 | 1000 | 1900 | 1.9 |  |  |  |  | 
12 | OCc1c(CO)c(-c2ccc(Cl)cc2)n2c1Cc1ccccc1-2 | 6100 | 4500 | 1 | 5700 | 4300 | 2400 | 0.55 |  |  |  |  | 
